Series [1] relates to 293T cells. The series is described as follows: Fluorescent detection of Fluc-mRNA (cell transfection efficiency of LNP formulations). It is filed as cell-based. The following applies: for Relative light unit (RLU): LNP formulation of Fluc-mRNA, 96-well plate, 24 hours; for Multiples (YK-305): RLU of YK-305 / RLU of the lipid of the line; for Multiples (YK-310): RLU of YK-310 / RLU of the lipid of the line; for Multiples (YK-312): RLU of YK-312 / RLU of the lipid of the line; for Multiples (YK-318): RLU of YK-318 / RLU of the lipid of the line; for Multiples (YK-318) / Multiples (YK-319): Tables 5, 7, 11; for Multiples (YK-319): RLU of YK-319 / RLU of the lipid of the line. The method, then:
(§1) Cell recovery and passage: 293T cells were recovered, cultured in a culture dish, and passaged to the required number of cells.
(§2) Seeding plate: The cells in the culture dish were digested and counted. Cells were spread in a 96-well plate at 10,000 cells per well and in a 12-well plate at 150,000 cells per well. Cells were cultured overnight until the cells adhered to the wall.
(§3) Cell recovery and passage: the method was the same as in Example 3.
(§4) Seeding plate: the method was the same as in Example 3.
An LNP formulation containing […] of Fluc-mRNA (the carrier components of the LNP formulation were cationic lipid, neutral lipid, structured lipid and polymer-conjugated lipid with a molar ratio of 49:10:39.5:1.5, wherein the cationic lipid was listed in Table 1) was added to the cell culture medium of a 96-well plate, and further incubated for 24 hours. The corresponding reagent was added according to the instructions of the […] Luciferase Assay Kit, and the fluorescence expression intensity of each well was detected by an IVIS fluorescence detection system. This test verified the transfection efficiencies of LNP formulations in cells, see Tables 4-7 for specific test results.

A further series relates to female BALB/C mice. The experiment in a line: Live imaging in mice: protein expression of Fluc-mRNA delivered by LNP formulations. In kind it is in vivo. The procedure: In addition, the protein expression and duration of mRNA in mice delivered by the cationic lipid delivery carriers designed were also verified.
The LNP formulation containing […] Fluc-mRNA was injected intramuscularly into female BALB/C mice aged 4 to 6 weeks old and weighed 17 to 19 g, and the mice were intraperitoneally injected with fluorescent imaging substrate at specific time points after administration (6 h, 24 h, 48 h and 7 d), where the mice were free to move for 5 minutes, and then the average radiation intensity (corresponding to fluorescence expression intensity) of the protein expression of the mRNA carried by the LNP in the mice was detected by the IVIS Spectrum small animal live imaging device.

A short description of series [2]: Particle size and polydispersity index (PDI) of lipid nanoparticles by dynamic light scattering. Particulars: LNP formulation prepared from the cationic lipid, 25° C. In kind it is physicochemical. The procedure:
The particle size and polydispersity index (PDI) were determined by dynamic light scattering using Malvern laser particle size analyzer.
10 μL of the liposome solution was weighed, diluted to 1 mL with RNase-free deionized water, and added to the sample pool. Each sample was measured in triplicate. The measurement conditions were: […] scattering angle, and 25° C.

In series [3] the test system is 293T cells. The series is described as follows: Cell survival rate determination (CCK-8). In kind it is cell-based. Particulars: LNP formulation of Fluc-mRNA, 24 hours, CCK-8. The procedure:
as §1, §2, §3, §4
An LNP formulation containing […] of Fluc-mRNA (the carrier components of the LNP formulation were cationic lipid, neutral lipid, structured lipid and polymer-conjugated lipid with a molar ratio of 49:10:39.5:1.5, wherein the cationic lipid was listed in Table 1) and the formulation of Lipofectamine 3000 were added to the cell culture medium of a 96-well plate, and further cultivated for 24 hours. 10 μL of CCK-8 solution was then added to each well, and the culture plate was incubated in an incubator for 1 hour. The absorbance at 450 nm was measured by a microplate reader.
Cell survival rate can represent the toxicity of cationic lipids to cells. The higher the cell survival rate, the lower the toxicity to cells.

Setting [4] is: 6 h after intramuscular injection.
[5] abbreviates: 24 h after intramuscular injection.
The mark [6] stands for this setting: 48 h after intramuscular injection.
The mark [7] stands for this setting: 7 d after intramuscular injection.

In the case of `CCCCCCCCCCOC(=O)CCCN(CCCCCC(=O)OCCC(CCCCCC)CCCCCC)C[C@H](O)CN(CC)CCO` [YK-309, (S)-3-hexylnonyl-6-(4-(decyloxy)-4-oxobutyl)(2-hydroxy-3-(((2-hydroxyethyl)(ethyl)amino)propyl)amino)hexanoate], in the series with 293T cells [1], the “Relative light unit (RLU)” value was 125370 RLU, the “Multiples (YK-305)” value came to 218.62, the “Multiples (YK-310)” value is reported as 205.77 and the “Multiples (YK-312)” value is listed as 160.71. Moreover, the “Ratio relative to SM-102” value in the series with 293T cells [1] (RLU of the lipid / RLU of SM-102, times that of SM-102) is given as 0.08. Also, the average radiation intensity in the series with female BALB/C mice (setting [4]) is listed as 65680. Moreover, the average radiation intensity in the series with female BALB/C mice (setting [5]) is reported as 16820. This molecule came in with an average radiation intensity in the series with female BALB/C mice (setting [6]) of 6551. In addition, the average radiation intensity with female BALB/C mice (setting [7]) is 1256. Further, in series [2], the “PDI (%)” value was found to be 27.6% and the “Particle size (nm)” value was determined as 232 nm. Moreover, the “Cell survival rate (%)” value in the series on 293T cells [3] came to 31.61%.
As for `CCCCCCCCCCOC(=O)CCCN(CCCCCC(=O)OCCC(CCCCCC)CCCCCC)C[C@H](O)CN(C)CCO` [YK-302], in the series on 293T cells [1], the “Relative light unit (RLU)” value came to 27778 RLU, the “Multiples (YK-305)” value amounted to 936.71, the “Multiples (YK-310)” value is 928.69 and the “Multiples (YK-312)” value is 725.34. In addition, in the series on 293T cells [1], the “Multiples (YK-318)” value stood at 402.84 and the “Multiples (YK-319)” value is given as 880.83. In the series on female BALB/C mice (setting [4]), this molecule registered an average radiation intensity of 14580. In addition, the average radiation intensity in the series with female BALB/C mice (setting [5]) turned out to be 8956. This molecule also showed an average radiation intensity in the series on female BALB/C mice (setting [6]) of 4025. The molecule also registered an average radiation intensity in the series on female BALB/C mice (setting [7]) of 884. In series [2], the “PDI (%)” value was 13.4% and the “Particle size (nm)” value is 186 nm. Further, the “Cell survival rate (%)” value in the series on 293T cells [3] worked out at 16.43%.
For the molecule `CCCCCCCCCCOC(=O)CCCN(CCCCCC(=O)OCC(CCCCCCCC)CCCCCCCC)C[C@H](O)CN(C)CCO` [YK-301, (R)-2-octyldecyl-6-((4-(decyloxy)-4-oxobutyl)((2-hydroxy-3-(2-hydroxyethyl)(methyl)amino)propyl)amino)hexanoate], in the series with 293T cells [1], the “Relative light unit (RLU)” value is 842452 RLU, the “Multiples (YK-305)” value was 32.53, the “Multiples (YK-310)” value is 30.62 and the “Multiples (YK-312)” value turned out to be 23.92. Besides, in the series with 293T cells [1], the “Multiples (YK-318)” value was 13.28 and the “Multiples (YK-319)” value is given as 29.04. In addition, in series [2], the “PDI (%)” value was 7.0% and the “Particle size (nm)” value is listed as 192 nm. Further, the “Cell survival rate (%)” value in the series on 293T cells [3] is 52.96%.

For the origin of these results see patent US20260007613A1, “LONG-ACTING LOW-TOXICITY NOVEL CATIONIC LIPID COMPOUNDS AND COMPOSITION THEREOF” (BEIJING YOUCAREKECHUANG PHARMACEUTICAL TECHNOLOGY CO., LTD., priority 2023, published 2026).
